Reference: US20210177808A1, “INJECTABLE ISOXAZOLINE PHARMACEUTICAL COMPOSITIONS AND THEIR USE AGAINST PARASITE INFESTATION” (Intervet Inc., priority 2017, published 2021)

Tested on: Ctenocephalides felis fleas
Assay: Flea efficacy on dogs approximately 6 months after treatment (Example 4B)
Format: in vivo
Experimental: The results from additional dose characterization studies are summarized. These studies evaluated three doses (10, 15 and 20 mg/kg) in adult dogs. The injectable suspension formulations of fluralaner were prepared is indicated in Example 1J above. One study tested the effectiveness against Rhipicephalus sanguineus ticks (see Table 7). A second study evaluated efficacy against fleas at approximately 6 months after treatment was tested in dogs (see Table 8).

Cc1cc(C2=NOC(c3cc(Cl)cc(Cl)c3)(C(F)(F)F)C2)ccc1C(=O)NCC(=O)NCC(F)(F)F (centres unmarked) [fluralaner, 4-[5-(3,5-Dichlorophenyl)-5-trifluoromethyl-4,5-dihydroisoxazol-3-yl]-2-methyl-N-[(2,2,2-trifluoro-ethylcarbamoyl)-methyl]-benzamide]
Effectiveness in reducing live fleas on dogs (all three doses (10, 15, 20 mg/kg), 6 months following treatment): 100%
Predicted duration of efficacy against fleas (predicted because fleas are more sensitive to fluralaner than ticks): 12 months
